Key:
Abi1 = experiment: Immunofluorescence colocalization of Caskin2-GFP constructs with Abi1 in GE11tetONβ1 cells; format: cell-based; settings: cell periphery
Procedure: PA-JEB/β4 keratinocytes were seeded on glass coverslips and cultured for 24 h in complete KGM, and then continued to be cultured for a further 16 h in DMEM with 10% FCS. GE11^tetONβ1 and MCF7 cells were seeded on glass coverslips and cultured for 24 h in DMEM with 10% FCS. Cells were fixed in 2% paraformaldehyde and permeabilized with 0.2% Triton X-100 for 5 min, blocked with PBS containing 2% bovine serum albumin (BSA; Sigma-Aldrich) for 45 min and subsequently incubated with primary and secondary antibodies for 1 h. In between antibody steps, the coverslips were washed three times with PBS. Actin fibers were visualized by staining with Phalloidin–Alexa Fluor 647 (Cell Signaling Technology). Nuclei were stained with DAPI. Samples were mounted on glass slides in Mowiol after three washing steps with PBS. Images were acquired with a Leica TCS SP5 confocal microscope with a 63× (NA 1.4) oil objective. Software for image acquisition is Leica LAS AF 3.0.2 ([Wang et al., 2020b]).
Imaging analysis was performed using FIJI software ([Schindelin et al., 2012]). The levels of colocalization between Caskin2 and various other proteins, including integrin β4, FA proteins and CMSC components, was performed using Pearson's co-efficient analysis in the JACoP module of ImageJ ([Carisey et al., 2013]; [Wang et al., 2020b]).

[1] = test system: endogenous Abi1, Wasf1, Cyfip2 and Nckap1; experiment: GFP-Trap co-IP of endogenous WRC components in GE11tetONβ1 cells; format: binding
Procedure: (§1) For analysis of protein in whole-cell lysates, cells were washed three times with cold PBS, lysed in Nonidet P-40 lysis buffer [20 mM Tris-HCl pH 7.5, 100 mM NaCl, 1% NP-40), supplemented with Na3VO4 (1.5 mM), NaF (15 mM), protease inhibitor cocktail (1:1000; Sigma-Aldrich) and phosphatase inhibitor cocktail 3 (1:100; Sigma-Aldrich)] and cleared by centrifugation at 14,000 g for 1 h at 4°C. After addition of an equal volume of 4× sample buffer (200 mM Tris-HCl pH 6.8, 10% SDS, 40% glycerol 0,1% Bromophenol Blue and 2% mercaptoethanol) and heating the samples at 95°C for 5 min, the samples were loaded on Novex NuPAGE 4–12% gradient Bis-Tris gels (Invitrogen) and transferred onto Immobilon® PVDF membranes. […]
(§2) GFP-Trap pulldown experiments were performed as follows. Cleared lysates containing equal amounts of proteins, as determined by a Pierce™ BCA Protein Assay, were incubated with GFP-Trap agarose beads (Chromotek) in a rotation wheel for 6 h at 4°C. […]

HA–Abi1 = experiment: GFP-Trap co-IP of HA–Abi1 by Caskin2-GFP constructs in COS-7 cells; format: binding; settings: for HA–Abi1 binding: GFP-Trap, western blot, three independent experiments
Procedure: (§3) For transient expression, COS-7 cells were grown to 70% confluence in 10 cm culture dishes and transfected with plasmid DNAs using the DEAE–dextran method ([Schaapveld et al., 1998]). Briefly, 4.5 µg of plasmid DNA was mixed with 500 µg/ml DEAE–dextran in 2.5 ml PBS. Cells were washed two times with PBS and then incubated for 30 min at 37°C with the DEAE–dextran solution. Subsequently, 80 µM chloroquine was added to the cells in 10 ml DMEM with FCS and cells were incubated at 37°C for 3 h. After aspiration of the medium, the cells were treated with 3 ml of DMEM with FCS containing 10% DMSO for 2.5 min. The DMSO solution was then removed and replaced with fresh medium, after which the cells were further incubated for 48–72 h before analysis.
(§4) For analysis of protein in whole-cell lysates, cells were washed three times with cold PBS, lysed in Nonidet P-40 lysis buffer [20 mM Tris-HCl pH 7.5, 100 mM NaCl, 1% NP-40), supplemented with Na3VO4 (1.5 mM), NaF (15 mM), protease inhibitor cocktail (1:1000; Sigma-Aldrich) and phosphatase inhibitor cocktail 3 (1:100; Sigma-Aldrich)] and cleared by centrifugation at 14,000 g for 1 h at 4°C. After addition of an equal volume of 4× sample buffer (200 mM Tris-HCl pH 6.8, 10% SDS, 40% glycerol 0,1% Bromophenol Blue and 2% mercaptoethanol) and heating the samples at 95°C for 5 min, the samples were loaded on Novex NuPAGE 4–12% gradient Bis-Tris gels (Invitrogen) and transferred onto Immobilon® PVDF membranes. Membranes were blocked for at least 2 h in 2% BSA in TBST (10 mM Tris-HCl pH 7.5, 150 mM NaCl with 0.05% Tween 20] before incubation with primary antibody overnight at 4°C and with secondary antibody for 1 h at room temperature. After each incubation step, the membranes were washed twice with TBST and twice with TBS (TBST without Tween 20). Finally, proteins were visualized using Clarity™ Western ECL Substrate (Bio-Rad Laboratories), as described previously ([Wang et al., 2020b]).
(§5) GFP-Trap pulldown experiments were performed as follows. Cleared lysates containing equal amounts of proteins, as determined by a Pierce™ BCA Protein Assay, were incubated with GFP-Trap agarose beads (Chromotek) in a rotation wheel for 6 h at 4°C. Beads were washed three times with Nonidet P-40 lysis buffer and two times with cold PBS. Bound proteins and input samples (whole-cell lysates, 1%) were then loaded on gel and transferred to Immobilon-P transfer membranes, after which the blotted proteins were probed with antibodies, as described above.

14-3-3 proteins = experiment: GFP-Trap co-IP of 14-3-3 proteins in GE11tetONβ1 cells; format: binding
Procedure: as §1, §2

endogenous talin = experiment: GFP-Trap pulldown of talin by Caskin2-GFP constructs in COS-7 cells; format: binding; settings: western blot, n=3
Procedure: as §3, §1, §2

GE11tetONβ1 cells = experiment: Cell migration (time-lapse cell motility) of GE11tetONβ1 cells; format: cell-based; settings: 20 h time-lapse, DMEM 1% FCS; two independent experiments
Procedure: Cell motility assays were conducted using time-lapse recordings of cells cultured on plastic 12-well plates in DMEM containing 1% FCS and 1% antibiotics. Phase-contrast images were acquired using a Zeiss AxioObserver Z.1 microscope equipped with a heated stage (37°C and 5% CO2), with a 10×/0.30 EC Plan-Neofluar Ph1 objective (Zeiss), captured with a Zeiss AxioCam MRm. Images were acquired every 10 min for 20 h. Cells were tracked manually using ImageJ; tracking data was analyzed using the Chemotaxis Tool plugin (Ibidi).

Caskin2 = experiment: GFP-Trap co-IP of Caskin2 by GFP-tagged talin constructs in COS-7 cells; format: binding, Human; settings: western blot
Procedure: as §3
For analysis of protein in whole-cell lysates, cells were washed three times with cold PBS, lysed in Nonidet P-40 lysis buffer [20 mM Tris-HCl pH 7.5, 100 mM NaCl, 1% NP-40), supplemented with Na3VO4 (1.5 mM), NaF (15 mM), protease inhibitor cocktail (1:1000; Sigma-Aldrich) and phosphatase inhibitor cocktail 3 (1:100; Sigma-Aldrich)] and cleared by centrifugation at 14,000 g for 1 h at 4°C. […]
as §2

Caskin2–Abi1 = Caskin2–Abi1 binding after growth factor stimulation (GFP-Trap, western blot) in GE11tetONβ1 cells; format: cell-based; settings: for EGF-stimulated loss of Abi1 binding with inhibitor: inhibitor 100 nM, 1 h pretreatment, EGF 100 ng/ml for 15 min; for Caskin2–Abi1 binding after growth factor: EGF 100 ng/ml or PDGF 50 ng/ml, serum-starved 16 h
Procedure: For analysis of protein in whole-cell lysates, cells were washed three times with cold PBS, lysed in Nonidet P-40 lysis buffer [20 mM Tris-HCl pH 7.5, 100 mM NaCl, 1% NP-40), supplemented with Na3VO4 (1.5 mM), NaF (15 mM), protease inhibitor cocktail (1:1000; Sigma-Aldrich) and phosphatase inhibitor cocktail 3 (1:100; Sigma-Aldrich)] and cleared by centrifugation at 14,000 g for 1 h at 4°C.
as §5
For EGF- and PDGF-BB-induced stimulation of Caskin2 phosphorylation, cells were serum starved for 16 h in DMEM without FCS. The serum-starved cells were then treated with 100 ng/ml EGF (Sigma-Aldrich) or 50 ng/ml PDGF-BB (Sigma-Aldrich) at 37°C for the indicated times. Serum-starved cells treated with EGF and the signal transduction inhibitors AZD8055 (mTOR inhibitor, Selleckchem) and Tramatinib (MEK1/2 inhibitor, Selleckchem) were first pre-treated with the inhibitor for 60 min before they were treated with the growth factor for 15 min.

pCaskin2 (S878) = experiment: Caskin2 S878 phosphorylation (GFP-Trap, western blot) in GE11tetONβ1 cells; format: cell-based; settings: for EGF-induced phosphorylation of Caskin2 at serine 878 with inhibitor: inhibitor 100 nM, 1 h pretreatment, EGF 100 ng/ml for 15 min; for Caskin2 phosphorylation on S878 after growth factor: EGF 100 ng/ml or PDGF 50 ng/ml, serum-starved 16 h
From the text: To explore the role of Caskin2-S878 further in regulating the Abi1 interaction, we developed a phospho-specific antibody targeting this serine. Unfortunately, high non-specific binding of the phospho-Caskin2 antibody protein sample prevented its consistent use in detecting phosphorylated Caskin2 in western blot analysis of whole-cell lysates. […] Abi1 functions downstream of growth factor receptor signaling to control Rac1-dependent actin rearrangements. Therefore, we hypothesized that Caskin2-S878 phosphorylation might occur downstream of growth factor receptor stimulation. To explore this, we conducted co-IP experiments using GE11^tetONβ1 cells stably expressing Caskin2-FL–GFP stimulated with either EGF or PDGF. […] To gain insight into the kinases involved in the EGF-induced phosphorylation of Caskin2 at serine 878, we pretreated the cells with mTOR (AZD8055) and MEK1/2 (Trametinib) inhibitors for 1 h before stimulation.
as §4, §5
For EGF- and PDGF-BB-induced stimulation of Caskin2 phosphorylation, cells were serum starved for 16 h in DMEM without FCS. […]

talin = experiment: GFP-Trap pulldown of talin by Caskin2-GFP constructs in GE11tetON β1 cells; format: binding; settings: western blot, with and without doxycycline
Procedure: as §1, §2

Molecule: Caskin2-PRR^4A–GFP: Caskin2–GFP with PxPxxPxR mutated to AxAxxAxA
- colocalization with Abi1 (Abi1): no such colocalization was observed
- precipitation of endogenous Abi1, Wasf1, Cyfip2 and Nckap1 [1]: none of these were precipitated
- HA–Abi1 binding (HA–Abi1): neither of these constructs could precipitate co-expressed HA-tagged Abi1
- precipitation of 14-3-3 proteins (14-3-3 proteins): precipitated with both Caskin2-FL–GFP and Caskin2-PRR^4A–GFP
- talin binding (endogenous talin): talin binding was unaffected
- cell motility (GE11tetONβ1 cells): migrated at a similar speed as GFP-only-expressing cells

Molecule: Talin-R2E–GFP: talin mutant carrying two reverse charge mutations (R1523E and K1530E)
- Caskin2 binding to talin construct (Caskin2): slightly increased binding

Molecule: Caskin2-S878D–GFP: phosphomimetic mutant of Caskin2–GFP, S878 to aspartic acid
- reduction of HA–Abi1 binding (HA–Abi1; co-IP, phosphomimetic mutant): ~80%

Molecule: CC(=O)Nc1cccc(-n2c(=O)n(C3CC3)c(=O)c3c(Nc4ccc(I)cc4F)n(C)c(=O)c(C)c32)c1 [Trametinib, reference compound]
- EGF-stimulated loss of Abi1 binding with inhibitor (Caskin2–Abi1): inhibited the EGF-stimulated loss of Abi1 binding
- EGF-induced phosphorylation of Caskin2 at serine 878 with inhibitor (pCaskin2 (S878)): reduced phosphorylation of Caskin2

Molecule: full-length exogenous talin: full-length exogenous talin, GFP-tagged
- Caskin2 binding to talin construct (Caskin2): only limited binding

Molecule: COc1ccc(-c2ccc3c(N4CCOC[C@@H]4C)nc(N4CCOC[C@@H]4C)nc3n2)cc1CO [AZD8055, reference compound]
- EGF-stimulated loss of Abi1 binding with inhibitor (Caskin2–Abi1): only Trametinib, either alone or in combination with AZD8055 inhibited the EGF-stimulated loss of Abi1 binding
- EGF-induced phosphorylation of Caskin2 at serine 878 with inhibitor (pCaskin2 (S878)): reduced phosphorylation of Caskin2

Molecule: Caskin2-ΔLD–GFP: Caskin2 construct with the LD motif deleted (L1183–D1202 deleted) fused to GFP
- talin binding (talin): the LD motif is required for the interaction with talin
- cell motility (GE11tetONβ1 cells): no difference in motility between Caskin2-FL–GFP- and Caskin2-ΔLD–GFP- expressing cells

Molecule: EGF: growth factor (Sigma-Aldrich)
- Caskin2–Abi1 binding after growth factor (Caskin2–Abi1): reduction in Caskin2–Abi1 binding
- Caskin2 phosphorylation on S878 after growth factor (pCaskin2 (S878)): increase in Caskin2 phosphorylation on S878 within 5 min

Molecule: Caskin2-4A–GFP: GFP-fused Caskin2 mutant with four amino acids (L1183, F1190, L1197, L1201) replaced by alanine
- talin binding (endogenous talin): failed to pull down endogenous talin

Molecule: PDGF
- Caskin2–Abi1 binding after growth factor (Caskin2–Abi1): reduction in Caskin2–Abi1 binding
- Caskin2 phosphorylation on S878 after growth factor (pCaskin2 (S878)): increase in Caskin2 phosphorylation on S878 within 5 min

Molecule: Caskin2-S877D–GFP: phosphomimetic mutant of Caskin2–GFP, S877 to aspartic acid
- HA–Abi1 binding (HA–Abi1): no obvious difference in binding

Molecule: Caskin2-ΔPRR–GFP: Caskin2–GFP lacking amino acids 746–1035
- colocalization with Abi1 (Abi1): no such colocalization was observed
- HA–Abi1 binding (HA–Abi1): neither of these constructs could precipitate co-expressed HA-tagged Abi1
- talin binding (endogenous talin): talin binding was unaffected
- cell motility (GE11tetONβ1 cells): migrated at a similar speed as GFP-only-expressing cells

Molecule: Caskin2-FL–GFP: full-length Caskin2 fused to GFP
- talin binding (talin): the interaction is independent of integrin β1
- colocalization with Abi1 (Abi1): colocalized with Abi1 at the cell periphery
- precipitation of endogenous Abi1, Wasf1, Cyfip2 and Nckap1 [1]: precipitated endogenous Abi1, Wasf1, Cyfip2 and Nckap1
- HA–Abi1 binding (HA–Abi1): efficiently pulled down
- precipitation of 14-3-3 proteins (14-3-3 proteins): precipitated with both Caskin2-FL–GFP and Caskin2-PRR^4A–GFP
- increase in cell motility compared to GFP-only expression (GE11tetONβ1 cells): ~45%

— PMC11166458, “Caskin2 is a novel talin- and Abi1-binding protein that promotes cell motility” (Journal of Cell Science, 2024)
